Consider 4 molecules from patent publication US5578566A, “KGF receptor-derived antagonists of KGF binding” (The United States of America as represented by the …, priority 1993, dated 1996).

No end group written: not given here.

For one data set, the target named is T1, KGF receptor (KGFR) (Mus musculus, UniProt P21803).
T1 construct: expressed in transfected cells; host or cells: NIH/3T3
As to the kind of experiment: [125I]-KGF binding to NIH/3T3 cells overexpressing KGFR (competition). As to conditions: NIH3T3/KGFR transfectants; read-out: displacement of 50% of the radiolabeled KGF. How it is done: Values shown are the mean of triplicate samples. Results are representative of three separate experiments.
[^125 I]-KGF binding to NIH/3T3 cells overexpressing KGFR was measured as described in Bottaro et al., supra. Competition studies were performed with unlabeled KGF or peptides as indicated.

A short description of a further data set: Solubility in water. The class given is physicochemical.
Another data set deals with T2, KGF (Homo sapiens, UniProt P21781).
T2 construct: made in house
T2 sequence (P21781 32-194): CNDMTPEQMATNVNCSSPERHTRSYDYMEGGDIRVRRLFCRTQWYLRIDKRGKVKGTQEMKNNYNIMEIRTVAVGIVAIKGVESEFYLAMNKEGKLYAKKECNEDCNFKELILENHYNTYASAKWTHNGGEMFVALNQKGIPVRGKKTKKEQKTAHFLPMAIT
Briefly: KGF radioimmunoassay: immunoprecipitation of [125I]-KGF by monoclonal antibody 1G4. Format: binding. How it is done: Upper Panel: Immunoprecipitation of [^125 I]-KGF competed by KGF, aFGF, aFGF+heparin (30 μg/ml), peptide 412 (SEQ ID NO 2) or peptide 341. Lower Panel: Immunoprecipitation of [^125 I]-KGF competed by KGF, KGF+heparin (1, 10, or 30 μg/ml, as indicated), peptide 412 (SEQ ID NO 2), or peptide 412 (SEQ ID NO 2)+heparin (1, 10, or 30 μg/ml, as indicated). Values are the mean of duplicate samples, expressed as % maximum [^125 I]-KGF bound. Raw values for background and maximum [^125 I]-KGF bound were approximately 300 and 12,000 cpm/sample, respectively. Results are representative of three separate experiments.
[^125 I]-KGF was immunoprecipitated by 1G4 in the presence of unlabeled KGF, aFGF, or peptides as indicated. Briefly, 1G4 (4 ng/ml final concentration), [^125 I]-KGF (30,000 cpm), and appropriate competitors were mixed in 200 μl of buffer containing 10 mM Tris (pH 7.4), 130 mm NaCl, 1 mM EDTA, 10 mM KC1, 1% NP-40, 0.1% SDS, 0.05% Tween-20, and 0.3% nonfat dry milk, and incubated for 24h at 4° C. Antigen-antibody complex was recovered by adding 30 ul (50% suspension) GammaBind-G Sepharose, incubating an additional 30 min at 4° C. (turning gently), and brief centrifugation (5 min at 14,000×g, 4° C.). Pelleted material was washed three times ([…] each) with cold buffer, and radioactivity was measured by gamma counting.

Another data set concerns KGF mitogenic activity. As to conditions: Ron et al.; cited from earlier work.

T1 sequence (P21803 22-707 isoform P21803-2 limits assumed): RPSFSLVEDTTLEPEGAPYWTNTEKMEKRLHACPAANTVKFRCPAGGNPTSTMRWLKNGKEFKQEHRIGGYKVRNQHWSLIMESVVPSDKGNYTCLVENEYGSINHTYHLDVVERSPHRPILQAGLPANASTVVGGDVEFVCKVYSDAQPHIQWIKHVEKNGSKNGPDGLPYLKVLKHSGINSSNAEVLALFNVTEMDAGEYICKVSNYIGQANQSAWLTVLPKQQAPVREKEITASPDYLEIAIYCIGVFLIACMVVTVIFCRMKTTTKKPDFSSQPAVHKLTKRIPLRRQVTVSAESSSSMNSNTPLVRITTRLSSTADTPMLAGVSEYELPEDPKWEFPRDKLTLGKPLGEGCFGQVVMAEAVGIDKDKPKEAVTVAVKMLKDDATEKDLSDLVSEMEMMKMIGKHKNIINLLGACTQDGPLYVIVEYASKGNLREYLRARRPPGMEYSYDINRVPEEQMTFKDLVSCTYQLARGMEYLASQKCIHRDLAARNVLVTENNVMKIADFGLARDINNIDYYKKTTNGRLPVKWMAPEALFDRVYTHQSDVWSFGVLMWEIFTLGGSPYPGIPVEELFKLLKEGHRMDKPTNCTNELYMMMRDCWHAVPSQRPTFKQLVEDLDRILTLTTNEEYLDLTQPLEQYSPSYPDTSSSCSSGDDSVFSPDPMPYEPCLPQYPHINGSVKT

Regarding HSGINSSNAEVLALFNVTEM [peptide 367], the IC50 at KGF receptor (KGFR) was about 4 µM. For the same molecule, the “water solubility relative to its highest ED50” value in “Solubility in water” is given as “approximately 30 fold”. Further, in “Solubility in water” (read-out: limit of solubility in water), the solubility was determined as 125 µM.
Consider HSGINSSNAEVLALFNVTEMDAGEY [peptide 412], for which the IC50 was about 4 µM at KGF receptor (KGFR) and about 1 µM at KGF (KGF RIA, read-out: concentration required to achieve 50% displacement of [125I]-KGF from 1G4). For the same molecule, the Kd at KGF (consistent with data from receptor binding assay and RIA, read-out: Kd for KGF/peptide interactions) was in the range of 1 to 2 µM. The “water solubility relative to its highest ED50” value in “Solubility in water” is over 3000 fold.
heparin [reference compound]: the “effect on KGF mitogenesis” value in the data set on KGF mitogenic activity was “inhibits KGF mitogenesis”. For the same molecule, the “competition / displacement of [125I]-KGF from 1G4” value on KGF (KGF RIA) is “had no effect”.

B1: aFGF: Acidic FGF purified from bovine brain, from Upstate Biotechnology (protein, UniProt P03968 16-155, looked up)
Fibroblast growth factor 1: FNLPLGNYKKPKLLYCSNGGYFLRILPDGTVDGTKDRSDQHIQLQLCAESIGEVYIKSTETGQFLAMDTDGLLYGSQTPNEECLFLERLEENHYNTYISKKHAEKHWFVGLKKNGRSKLGPRTHFGQKAILFLPLPVSSD
As to B1, the “competition / displacement of [125I]-KGF from 1G4” value with KGF (KGF RIA) is recorded as “but not aFGF, even at a 1000-fold higher concentration”. In the data set with KGF (heparin 30 μg/ml), the “competition in the KGF RIA with addition of heparin” value was “did not cause aFGF to compete”.
